Source: paper PMC12734540, “Unraveling the Potential Antiviral Activity of Isoxazoline-Carbocyclic Monophosphate Nucleotides Against Echovirus 11” (Microorganisms, 2025)
Several values for one entry are separate records, joined by “and”; a condition that tells them apart may be missing. Identical values can stand only once.

How the values were obtained:
[1] = test system: Echovirus 11; assay: Post-infection CPE inhibition assay (crystal violet); assay type: cell-based, Echovirus 11 lineage 1; conditions: for reduction in E11 infection / E11-induced CPE / EC50: MOI 0.025, 48 h, VERO 76 cells; for EC50: post-infection CPE inhibition
[2] = test system: Echovirus 11; assay: E11 RNA quantification in supernatant by qRT-PCR (dose response); assay type: cell-based, Echovirus 11 lineage 1; conditions: 48 h; for reduction in extracellular viral RNA: supernatant, MOI 0.025, relative to untreated infected controls
Experimental: (§1) Quantification of E11 genomic RNA was used as a hallmark of RNA virus replication within VERO 76-infected cells. The viral RNA was extracted from both cell culture supernatants and cell-associated fractions and quantified by one-step qRT-PCR using the automated Elite InGenius one-step RNA Enterovirus ELITe MGB® Kit, according to the manufacturer’s protocols. The experiment was performed in triplicate and RNA yield was reported as the mean value of a triplicate assay. To improve the accuracy of extracellular RNA quantification, particularly at 48 h post-infection (p.i.), a secondary analysis was performed using a two-step SYBR Green RT-qPCR. In particular, specific primers targeting the gene encoding the RNA-dependent RNA polymerase (RdRp) of E11 were designed using the Primer3 software (version 4.1.0). […]. Reverse transcription was carried out with a high-capacity cDNA synthesis kit, followed by quantitative PCR using SYBR Green Master Mix on a real-time PCR instrument. Data were analyzed using the ΔΔCt method, with normalization to the synthetic RNA spike-in.
The antiviral activity of nucleotides 4a and 4b against E11 replication was further evaluated by quantifying viral RNA in the supernatant of infected VERO 76 cells treated with increasing concentrations of each compound (6.25–50 μM for 4a; 6.25–100 μM for 4b). Following viral infection at a MOI of 0.025, cells were treated and incubated for 48 h. Viral genome copies were then assessed by qRT-PCR. Treatment with nucleotide 4a led to a dose-dependent reduction in extracellular viral RNA, with a 72% decrease observed at 25 μM and an 89% reduction at 50 μM relative to untreated infected controls.

[3] = test system: Echovirus 11; assay: Time-course analysis of E11 RNA (cell monolayer and supernatant) by qRT-PCR; assay type: cell-based, Echovirus 11 lineage 1; conditions: 25 µM, MOI 0.025; for reduction in intracellular viral RNA levels: cell monolayer
Experimental: as §1
To evaluate the antiviral activity of compound 4a in VERO 76 cells over time, viral replication was assessed through quantification of viral genome copies via qRT-PCR in both the cell-associated and supernatant fractions, as well as by CPE analysis.
The amount of viral RNA measured in the intracellular and the supernatant fractions was compared against the control group, which consisted of VERO 76 cells that were infected but not subjected to 4a treatment. […] (Figure 5A). […] (Figure 5B).

[4] = test system: Echovirus 11; assay: Two-step SYBR Green RT-qPCR of RdRp gene RNA in supernatant; assay type: cell-based, Echovirus 11 lineage 1; conditions: 25 µM, 48 h p.i., vs untreated controls, p = 0.0003
Experimental: as §1
To further corroborate and confirm the inhibitory effect of 4a on viral RNA release into the extracellular environment, an additional quantification was performed using a two-step SYBR Green-based RT-qPCR targeting the gene ecoding for the viral RdRp. […]

[5] = test system: VERO 76 cells; conditions: for cell viability: 25 µM
Experimental: After 48 h of incubation, 20 µL of MTS reagent were added directly to each well and the plates were incubated according to the manufacturer’s protocol. The conversion of MTS into a soluble formazan product by metabolically active cells was quantified by measuring the absorbance at 490 nm. For data analysis, the optical density (OD) of each well was first corrected by subtracting the background OD (medium + MTS without cells). The percentage of cell viability was then calculated by comparing the corrected OD of treated samples with the mean corrected OD of untreated control cells (0 µM), which was set as 100% viability:Cell viability (%) = (OD_treated − OD_blank)/(mean OD_control − OD_blank) × 100
Two independent experiments were performed, each in triplicate (n = 6 per condition). Dose–response curves were generated and CC50 values were determined by nonlinear regression using GraphPad Prism software v. 8.0 (San Diego, CA, USA).

[6] = test system: SARS-CoV-2 RdRp; set-up: method as in PMID 37810686; conditions: cited from earlier work
[7] = test system: Echovirus 11; assay: Plaque assay of infectious titer; conditions: 25 µM, supernatants collected at 48 h p.i., vs untreated control (CV)
Experimental: E11 infectious titers were determined by plaque assay. Briefly, 100 µL of culture supernatant from infected cells were serially diluted (10-1–10-4) in DMEM containing 1% FBS. VERO 76 cells were seeded in 24-well plates 24 h before infection to obtain 90% confluency. Cells were inoculated with 50 µl of each dilution and incubated for 1 h at 37 °C with gentle rocking. After adsorption, the inoculum was removed, and cells were overlaid with DMEM containing 1% FBS and carboxymethyl cellulose (CMC). Following 72 h incubation, monolayers were fixed, stained with crystal violet, and plaques were counted. Viral titers were expressed as plaque-forming units per milliliter (PFU/mL) according to:PFU/mL = (number of plaques)/(dilution factor × inoculated volume).

[8] = test system: Echovirus 11; assay: Infectivity of viral progeny (CPE on fresh cells); conditions: 25 µM, supernatants collected 10, 24, 48 h p.i.
Experimental: To directly quantify this effect, a plaque assay was performed on supernatants collected at 48 h p.i.

| SMILES | reduction in E11 infection / E11-induced CPE ([1]; 25 µM, post-infection) | reduction in E11 infection / E11-induced CPE ([1]; 50 µM, post-infection) | EC50 [1] [µM] | reduction in extracellular viral RNA ([2]; 25 µM) [%] | reduction in extracellular viral RNA ([2]; 50 µM) [%] | reduction in intracellular viral RNA levels ([3]; 10 h p.i.) [%] | reduction in intracellular viral RNA levels ([3]; 24 h p.i.) [%] | drop in viral RNA levels in supernatant ([3]; 24 h p.i.) [%] | drop in viral RNA levels in supernatant ([3]; 48 h p.i.) [%] | RdRp RNA levels in the supernatant [4] | cell viability [5] | anti-SARS-CoV-2 RdRp activity [6] | decrease of infectious viral titer (PFU/mL) [7] [fold] | CPE in fresh VERO 76 cells exposed to supernatants of treated cultures [8] | effect on viral RNA levels in supernatant ([2]; 6.25–100 µM, MOI 0.025) | CC50 [5] [µM] | protection from E11-induced CPE ([1]; 6.25 to 25 µM, post-infection, MOI 0.025, VERO 76 cells) |
| --- | --- | --- | --- | --- | --- | --- | --- | --- | --- | --- | --- | --- | --- | --- | --- | --- | --- |
| O=P(O)(O)OC1CC(n2cnc3c(Cl)ncnc32)C2C(c3c4ccccc4c(Br)c4ccccc34)=NOC12 (stereo not shown) [4a] | 90% and 83.9% | 75% and 79.8% | 8.15 ± 1.4 | 72 | 89 | 43 | 65 | 31 | 91 | significantly reduced | > 80% | moderate anti-SARS-CoV-2 RdRp activity | > 10 | markedly reduced CPE | – | – | – |
| O=P(O)(O)OC1CC(n2cnc3c(Cl)ncnc32)C2ON=C(c3c4ccccc4c(Br)c4ccccc34)C12 (stereo not shown) [4b] | 58% | 38% | 40.5 ± 1.8 | – | – | – | – | – | – | – | ~ 77% | moderate anti-SARS-CoV-2 RdRp activity | – | – | did not markedly affect viral RNA levels | 93.7 | – |
| CCC(CC)COC(=O)[C@H](C)N[P@](=O)(OC[C@H]1O[C@@](C#N)(c2ccc3c(N)ncnn23)[C@H](O)[C@@H]1O)Oc1ccccc1 [RDV, Remdesivir, reference compound] | – | – | – | – | – | – | – | – | – | – | – | – | – | – | – | – | robust and dose-dependent protection from E11-induced CPE |
